Results on four compounds are retold here after PMC4607650 (Bioorganic & medicinal chemistry letters, 2015).

For one assay, the target named is T1, human P2Y14R (Homo sapiens, UniProt Q15391).
T1 sequence (Q15391 1-338): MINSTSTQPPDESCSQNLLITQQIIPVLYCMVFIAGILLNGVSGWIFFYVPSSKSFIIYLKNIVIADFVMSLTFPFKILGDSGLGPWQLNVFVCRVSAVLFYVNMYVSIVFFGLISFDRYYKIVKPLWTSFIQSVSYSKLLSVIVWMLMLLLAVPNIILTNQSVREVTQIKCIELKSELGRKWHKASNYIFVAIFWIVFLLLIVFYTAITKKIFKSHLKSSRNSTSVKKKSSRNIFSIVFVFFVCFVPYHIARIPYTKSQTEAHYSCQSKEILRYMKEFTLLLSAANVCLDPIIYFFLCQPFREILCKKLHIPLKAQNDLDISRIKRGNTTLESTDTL
The assay can be described thus: inhibition of forskolin-stimulated cAMP accumulation in CHO-P2Y14R cells. The settings on record: cAMP EC50 ratio, hP2Y14R-CHO cells. It is filed as cell-based. A general note: Cyclic AMP is a second messenger, typically raised through Gs and lowered through Gi signalling.

For assay [1], the target named is T2, hP2Y14R (Homo sapiens, UniProt Q15391).
T2 sequence (Q15391 1-338): T1 sequence (Q15391 1-338)
It is filed as binding.

The test system of the next assay is P2Y6R. The settings on record: read-out: EC50 for activation of the P2Y6R; cited from earlier work.
Assay [2] has as its target T2, hP2Y14R. The assay can be described thus: competition for fluorescent binding of tracer 11.
In another assay the target is T3, P2Y14R-CHO cells (Homo sapiens, UniProt Q15391).
T3 sequence (Q15391 1-338): T1 sequence (Q15391 1-338)
The assay can be described thus: confocal fluorescence microscopy labeling of P2Y14R-CHO cells by 11. It is filed as cell-based.

“Also recorded” adds a separate entry of the source.

Regarding `O=C(COc1ccc(C2=[N+]3C(=Cc4ccc(-c5cccs5)n4[B-]3(F)F)C=C2)cc1)NCCCCCNC(=O)[C@H]1O[C@H](OP(=O)(O)OP(=O)(O)OCC2OC(n3ccc(=O)[nH]c3=O)C(O)C2O)[C@H](O)[C@@H](O)[C@@H]1O` (some centres unmarked) [Compound 11], the “potency enhancement of the fluorescent conjugate versus 47 nM parent” value on human P2Y14R was 50 fold. In addition, the Bmax on hP2Y14R [1] (FCM saturation binding, n=3) is 44,400 MESF. At hP2Y14R [1] (FCM, coincubation with up to 200 nM 5), the “level of nonspecific binding” value was “very low”.
With `CONc1ccn([C@@H]2O[C@H](COP(=O)(O)OP(=O)(O)OP(=O)(O)OC[C@H]3O[C@@H](n4ccc(=O)[nH]c4=O)[C@@H](O)[C@H]3O)[C@H](O)[C@@H]2O)c(=O)n1` [Compound 12, P^1-(uridine 5′-)-P^3-(N^4-methoxycytidine 5′-)triphosphate], the 50% effective concentration (EC50) (as a rule, the concentration at which the effect is half-maximal) in the assay on P2Y6R is 12 nM. Moreover, at hP2Y14R [2] (Ki (FCM, P2Y14R) higher than P2Y6R EC50), the “Ki at P2Y14R relative to EC50 at P2Y6R” value is recorded as “about 500 fold”.
With `S=C=Nc1cccc(NC(=S)NCCCCNC(=S)Nc2cccc(N=C=S)c2)c1` [Compound 13], on hP2Y14R [2] (test ligand at 10 μM, tracer 11 50 nM, FCM), the “inhibition of binding of 11 at hP2Y14R at fixed concentration” value is reported as “did not show any significant binding; also recorded: No inhibition at 10 μM”.
On to `O=C(O)c1cc(-c2ccc(C3CCNCC3)cc2)c2ccc(-c3ccc(C(F)(F)F)cc3)cc2c1` [Compound 5, 4-(4-(piperidin-4-yl)-phenyl)-7-(4-(trifluoromethyl)-phenyl)-2-naphthoic acid], for which, on P2Y14R-CHO cells, the “inhibition of fluorescent labeling by 11 (confocal microscopy)” value was “complete inhibition of binding”. In addition, the “inhibition of binding of 11 (FCM, concentration dependence)” value at hP2Y14R [2] is on record as “Nearly complete inhibition”.
